The text below walks through data of US20260146102A1, “METHODS FOR MODULATING REGULATORY T CELLS” (Universite de Lausanne, priority 2018, published 2026).

One test concerns YUMM1.7 melanoma. Briefly: YUMM1.7 melanoma-engrafted mice treated with PPARβ selective agonist. The class given is in vivo. On the procedure:
Tumor engraftment and treatment of tumor-bearing mice. For tumor induction, 3-week-old Braf/Pten mice were treated with 4-hydroxytamoxifen on the skin surface as described before to induce tumor formation (Ho, P. C. et al. Cancer Res 74, 3205-3217 (2014)). For tumor engraftment, 5×10^4 cells YUMM1.7, B 16-OVA, or one million MC38 tumor cells were injected subcutaneously in 50 μl PBS. Tumors were measured every 2-3 days post tumor engraftment or indicated treatments and calculated. Tumor volume was calculated by volume=(length×width^2 )/2 for engrafted tumor or volume=(length×width×height) for inducible tumor. For in vivo treatment, Yumm 1.7-bearing mice were administrated every 3 days with either DMSO or PPARβ agonist (GW 501516) (1 mg per kg of body weight, Cayman Chemical) by intraperitoneal injection. For antibody-based treatment, tumor-bearing mice were treated with anti-PD-1 antibody (200 μg per injection, BioXcell, clone 29F.1A12) and anti-CD36 antibody (200 μg per injection, clone CRF D-2712 (Driscoll, W. S., et al. Circulation research 113, 52-61 (2013)) according to indicated combination by intraperitoneal injection. For antibody treatment in the Braf/Pten mouse model, four weeks after tumor induction, tumor-bearing Braf/Pten mice were treated with anti-CD36 antibody and/or anti-PD-1 antibody as indicated above for a period of 10 days. All experiments were conducted according to Swiss federal regulations.
Tumor digestion and cell isolation. Tumors were minced into small pieces in RPMI containing 2% FBS, 1% penicillin-streptomycin (p/s), DNase I (1 μg/ml, Sigma-Aldrich), and collagenase (0.5 mg/ml, Sigma-Aldrich) and kept for digestion for 40 min at 37° C., followed by the filtration with a 70 μm cell strainer. Filtered cells were incubated with ACK lysis buffer (Invitrogen) to lyse red blood cells and then washed with fluorescent activated cell sorter (FACS) buffer (phosphate-buffered saline with 2% fetal bovine serum and 2 mM EDTA). Tumor-infiltrating leukocytes were further enriched by percoll density gradient centrifugation (800×g, 30 min) at room temperature as described before (Cheng, W. C. et al. Nat Immunol 20, 206-217 (2019)).
Flow cytometry, cell sorting, and antibodies. Single cell suspensions were incubated with Fc receptor-blocking anti-CD16/32 (93) and anti-CD351 (TX61) antibodies (Biolegend) on ice for 10 min before staining. Cell suspensions were first stained with LIVE/DEAD® Fixable Violet Dead Cell Stain Kit (ThermoFisher) at 37° C. for 10 min. After washing, surface proteins were stained for 30 min at 4° C. […] Samples were analyzed on LSRII flow cytometers (BD Biosciences) and data were analyzed with FlowJo. […]

In test [1] the test system is CD36-deficient Tregs. Briefly: NAD/NADH measurement in CD36-deficient iTregs cultured in cancer cell-conditioned medium. The test is classed as cell-based, mice. The conditions noted are these: 48 h, vs DMSO. On the procedure: Cancer cell-conditioned medium and iTreg culture. iTregs were generated by activating naïve CD4^+ T cells with Dynabeads conjugated with anti-CD3 and anti-CD28 mAbs (ThermoFisher) in RMPI media supplemented with 10% FBS, 10 ng/ml TGFβ and 50 U/ml IL-2 for three days. Then activated CD 4^+ T cells were maintained in RPMI media plus 10% FBS and 50 U/ml IL-2 for another 2 days. Differentiated iTregs were firstly sorted by using FACS cell sorter and then incubated in indicated culture condition for 48 h. The survival and NAD/NADH levels of iTregs were then determined by live/dead staining and ELISA kits, respectively. For NAD/NADH measurement in CD36-KO iTregs treated with PPARβ agonist, sorted iTregs were cultured in cancer cell-conditioned medium in the presence of DMSO or GW50156 for 48 h. […]
NAD and NADH measurement. The ratio of nicotinamide adenine dinucleotide (NAD) and nicotinamide adenine dinucleotide […] (NADH) was measured by using the commercial NAD/NADH Quantification Kit (Sigma-Aldrich MAK037). […]
decomposition. The samples were then transferred to a 96 wells plate for measuring the absorbance of 450 nm. […] The ratio of NAD/NADH in a sample could be determined by the following equation: ratio=(NADtotal−NADH)/NADH.

The test system of test [2] is CD36-deficient Tregs. The experiment in a line: Viability of iTregs in cancer cell-conditioned medium with or without NR. The test is classed as cell-based, mice. The conditions noted are these: NR 400 μM, 72 hrs (FIG. 3i). On the procedure: Cancer cell-conditioned medium and iTreg culture. iTregs were generated by activating naïve CD4^+ T cells with Dynabeads conjugated with anti-CD3 and anti-CD28 mAbs (ThermoFisher) in RMPI media supplemented with 10% FBS, 10 ng/ml TGFβ and 50 U/ml IL-2 for three days. Then activated CD 4^+ T cells were maintained in RPMI media plus 10% FBS and 50 U/ml IL-2 for another 2 days. […] The survival and NAD/NADH levels of iTregs were then determined by live/dead staining and ELISA kits, respectively. For NAD/NADH measurement in CD36-KO iTregs treated with PPARβ agonist, sorted iTregs were cultured in cancer cell-conditioned medium in the presence of DMSO or GW50156 for 48 h. Control RPMI for iTreg in vitro treatment was prepared with RPMI 1640 medium (Biological Industries) supplementing with 2 mM Glucose, 10 mM Glutamine, 10% Dialyzed FBS, 0.1% β-ME, and indicated levels of lactic acids. YUMM1.7 cancer cell-conditioned medium was collected by incubating YUMM1.7 cells (70-80% density) with control RPMI described above for 18 h. Then, culture medium was collected and centrifuged at 2000 rpm for 15 min to remove debris and cancer cells as cancer cell-conditioned medium. YUMM1.7 cancer cell-conditioned medium collected as described above was treated with Cleanascite™ reagent (Biotech Support Group) prior to Treg culture at a volume ratio of 1:5 according to the manufacturer's instruction.

Consider `Cc1cc(SCc2sc(-c3ccc(C(F)(F)F)cc3)nc2C)ccc1OCC(=O)O` [GW501516], for which the “cleaved caspase-3 in intratumoral Tregs” value in the test on YUMM1.7 melanoma (Treg^CD36−/− mice (FIG. 4i)) was “lower levels”. For the same compound, the “mitochondrial membrane potential of intratumoral Tregs (MitoTracker Deep Red staining)” value in the test with YUMM1.7 melanoma (Treg^CD36−/− mice (FIG. 4h)) is on record as “increased mitochondrial membrane potentials”. Moreover, the “intratumoral Treg abundance (FoxP3+ Tregs among CD4+ tumor-infiltrating T lymphocytes)” value in the test with YUMM1.7 melanoma (Treg^CD36−/− mice, 1 mg per kg i.p. every 3 days, two weeks (FIG. 4g)) is “restored”. Moreover, the tumor growth entry in the test on YUMM1.7 melanoma (Treg^CD36−/− mice, 1 mg per kg i.p. every 3 days, two weeks, vs control vehicle (FIG. 4f)) is recorded as “restored tumor growth”. Moreover, the NAD/NADH ratio entry with CD36-deficient Tregs [1] is recorded as “increased NAD/NADH ratios”.
Take `NC(=O)c1ccc[n+]([C@@H]2O[C@H](CO)[C@@H](O)[C@H]2O)c1` [nicotinamide riboside]: in the test with CD36-deficient Tregs [2], the “viability of CD36-deficient Tregs exposed to cancer cell-conditioned medium” value was “partially rescued the viability”.
